Data: patent US20090209503A1, “COLONIC DELIVERY THERAPEUTIC AGENTS FOR INFLAMMATORY BOWEL DISEASE” (AJINOMOTO CO. INC., priority 2005, published 2009)
“And” between values parts separate entries of the source, which are not always exact repeats. Identical values can stand only once.

Tests used:
[1] = test system: patients with ulcerative colitis; test: Example 1: 2 g L-glutamine enema, frequencies of bowel movements and diarrhea, blood feces scores; type: in vivo, humans; parameters: key to Blood feces score, Aft. admin.: blood feces score averaged per day: 0 = none, 1 = less, 3 = a lot
Description: Further, 60 mL of an enema agent prepared by adding 2 g of L-glutamine to sterilized water was administered via the large intestinal route to the patients with ulcerative colitis having the same symptoms as mentioned above (Case Nos. 5 and 9 to 14).
In addition, the patients with ulcerative colitis of Comparative Example and Example take a 5-ASA agent(s) (“Pentasas” or “Salazopyrin®”) as an oral agent conforming to dosage and administration.
The frequencies of bowel movements and diarrhea, and blood feces scores were measured of these patients.

rat models of TNBS = settings: 0.25 to 0.4 g/kg via the large intestinal route; Non-patent Literatures 13 and 14; cited from earlier work
[2] = test system: DSS model in mice (ulcerative colitis developed by 5% DSS water); test: Drug efficacy test by enema administration of glutamine on DSS model in mice; type: in vivo, mouse; settings: sixth day after start of drinking DSS water, FIG. 1
Description: 5% DSS water (dissolving dextran sulfate sodium in tap water) was drank ad lib by a male C57BL/6 Cr Slc mouse of 8 weeks old, and it developed ulcerative colitis. From one day before starting drinking of DSS water, L-glutamine was administered via the large intestinal route to the mouse once a day. An enema agent (solution) having the composition of 0.5% (w/v) carboxymethylcellulose—sodium was used as the enema agent. As the disease activity index, each average value of body weight scores, blood feces scores and diarrhea scores was calculated referring to the report of HS. Cooper et al. (Laboratory Investigation 1993; 69(2): 238).

[3] = test system: patients with ulcerative colitis; test: Comparative Example 1: 10 g L-glutamine via the large intestinal route, frequencies of bowel movements and diarrhea; type: in vivo, humans
Description: 10 g of L-glutamine was added to 60 mL of “Predonema®” Enema, and the mixture was administered via the large intestinal route to patients with ulcerative colitis. The frequencies of bowel movements and diarrhea were measured. […] Meanwhile, the patients were treated with “Predonema®” from Day 1 to Day 14, and 60 mL of “Predonema®” Enema prepared by adding 10 g of L-glutamine thereto was administered via the large intestinal route to the patients from Day 15 to Day 28.

[4] = test system: epithelial injuries in the upper digestive tracts such as the stomach and the duodenum; settings: dose of about 2 g a day; Non-patent Literatures 8 and 9; cited from earlier work
[5] = 2 g L-glutamine enema, with or without Predonema
[6] = 2 g L-glutamine enema, oral 5-ASA agent

## NC(=O)CC[C@H](N)C(=O)O [Gln, L-glutamine]
[1]; [5]
  frequency of bowel movements (summary of Table 1): maintained the frequency of bowel movements
  improvement in blood feces (summary of Table 1): improvement in blood feces was recognized in all cases
[1]; 2 g L-glutamine enema, as shown in Case Nos. 4 and 5
  diarrhea (summary of Table 1): able to improve diarrhea
[1]; [6]
  cases in which the blood feces improved: 3 out of 7
  improvement rate (blood feces): 43%
[1]; 2 g L-glutamine in 60 mL enema, admin. period 14-39 per case, oral 5-ASA agent, single patient, average per day, no blood feces: 0, less: 1, a lot: 3
  Blood feces score, Aft. admin.: 1.3 and 1.0 (2×) and 0.8 and 0.9
[1]; 2 g L-glutamine in 60 mL enema, large intestinal route, admin. period 14-39 per case, all with oral 5-ASA agent, single patient
  Freq. of bowel movement, Aft. admin.: 5.0 per a day and 5.3 per a day and 2.3 per a day and 13.9 per a day and 14.1 per a day
[1]; 2 g L-glutamine in 60 mL enema, large intestinal route, admin. period 14-39 per case, all with oral 5-ASA agent, single patient, number in ( )
  freq. of diarrhea, Aft. admin.: 0.1 per a day and 0.4 per a day and 0.0 per a day (2×) and 2.6 per a day
[1]; 2 g L-glutamine in 60 mL sterilized water enema, oral 5-ASA agent, single patient
  course of administration (stopped for aggravation of symptoms after starting administration): Stopped for aggravation
[1]; baseline before administration, single patient (Case No.), average value per day of the period
  Freq. of bowel movement, Bef. admin.: 4.5 per a day and 5.4 per a day and 2.5 per a day and 4.2 per a day and 6.7 per a day
[1]; baseline before administration, single patient (Case No.), number in ( )
  freq. of diarrhea, Bef. admin.: 2.0 per a day and 0.9 per a day and 0.0 per a day (2×) and 1.5 per a day
[1]; baseline before administration, single patient, average per day, no blood feces: 0, less: 1, a lot: 3
  Blood feces score, Bef. admin.: 2.2 and 1.3 (2×) and 0.8 and 1.0
Rat models of TNBS
  effectiveness in animal enteritis models: effective
[2]; 30 mg/kg once a day via the large intestinal route
  disease activity index (average of body weight, blood feces and diarrhea scores) versus vehicle-treated group: no significant difference
[2]; 100 mg/kg once a day via the large intestinal route
  disease activity index (average of body weight, blood feces and diarrhea scores) versus vehicle-treated group: no significant difference
[3]; 10 g L-glutamine added to 60 mL Predonema Enema, Day 15 to Day 28, after Predonema alone Day 1 to Day 14, oral 5-ASA agent, FIG. 2
  frequency of bowel movements: increased
[3]; 10 g L-glutamine added to 60 mL Predonema Enema, Day 15 to Day 28, oral 5-ASA agent
  blood feces (observation of feces): improving effect of blood feces was recognized
[3]; 10 g of L-glutamine via the large intestinal route to humans
  frequency of bowel movements: frequency of bowel movements increases
[4]
  effectiveness against epithelial injuries in the upper digestive tracts: effective
